Measured values from US7887818B2, “Neospora caninum vaccine” (The United States of America as represented by the …, priority 2008, dated 2011).

Tests used:
[1] = system: NcCyP; test: ELISA of NcCyP-specific antibody levels in sera of vaccinated mice; assay type: in vivo, N. caninum; settings: mouse sera 1:100, both trials, 3 weeks after challenge
Procedure: (§1) Adult female BALB/c mice (10-12 weeks old; 15 per group; National Cancer Institute, Frederick, Md.) were immunized s.c. in the lower back with a dose of 20 μg of rNcCyP, rNcSRS2, or 20 μg each of NcCyP and NcSRS2 formulated with adjuvants ImmuMax-SR® (a chitosan-based oil emulsion formulation [U.S. Pat. No. 5,980,912; Nov. 9, 1999]; (Repros Therapeutics Inc., formerly Zonagen Inc., TX) and CpG (ImmunoEasy, Qiagen) (Groups 1, 2, and 3). Control groups received non-recombinant antigen formulated with adjuvants ImmuMax-SR® and CpG (Group 4) or RPMI 1640 alone (Groups 5 and 6). The mice were given a secondary immunization 3 weeks later with the same preparation used in the primary immunization. All mice except for those in Group 6 were challenged s.c. with 10^5 N. caninum tachyzoites (NC1 isolate) in 50 μl RPMI 1640 three weeks following the secondary immunization. Group 6 mice received RPMI 1640 only and remained uninfected throughout the experiment (Table 1). […]
(§2) Antigen-specific antibody levels of vaccinated mice were determined by ELISA using purified rNcCyP or rNcSRS2. […] The wells were incubated with alkaline phosphatase-labeled goat anti-mouse IgG (H+L ch. sp., 1:5,000, Sigma) for 1 hr at RT, followed by addition of p-nitrophenyl phosphate substrate (Sigma), and reading on a microtiter plate reader at […].

[2] = system: NcSRS2; test: ELISA of NcSRS2-specific antibody levels in sera of vaccinated mice; assay type: in vivo, N. caninum; settings: mouse sera 1:100, both trials, 3 weeks after challenge
Procedure: as §1, §2

[3] = system: NcCyP; test: Western blot detection of anti-NcCyP antibodies in mouse sera (NcAg as antigen); assay type: in vivo, N. caninum; settings: for percent of mice with detectable antibodies against NcCyP: overall data from both trials
Procedure: (§3) Adult female BALB/c mice (10-12 weeks old; 15 per group; National Cancer Institute, Frederick, Md.) were immunized s.c. in the lower back with a dose of 20 μg of rNcCyP, rNcSRS2, or 20 μg each of NcCyP and NcSRS2 formulated with adjuvants ImmuMax-SR® (a chitosan-based oil emulsion formulation [U.S. Pat. No. 5,980,912; Nov. 9, 1999]; (Repros Therapeutics Inc., formerly Zonagen Inc., TX) and CpG (ImmunoEasy, Qiagen) (Groups 1, 2, and 3). Control groups received non-recombinant antigen formulated with adjuvants ImmuMax-SR® and CpG (Group 4) or RPMI 1640 alone (Groups 5 and 6). The mice were given a secondary immunization 3 weeks later with the same preparation used in the primary immunization. All mice except for those in Group 6 were challenged s.c. with 10^5 N. caninum tachyzoites (NC1 isolate) in 50 μl RPMI 1640 three weeks following the secondary immunization. Group 6 mice received RPMI 1640 only and remained uninfected throughout the experiment (Table 1). All mice were euthanized 3 weeks after challenge infection, and brain tissue and blood were collected at necropsy and processed for Neospora DNA and serum antibody analysis as described (Liddell et al. 1999b. Int J. Parasitol. 29: 1583-1587). Animal use and care of the present study was approved by the BARC Animal Use and Care Committee in accordance with appropriate regulations.
The presence of specific antibodies to NcCyP or NcSRS2 was also confirmed with Western blotting using NcAg as antigen (FIG. 5). In brief, N. caninum tachyzoite protein (equivalent to 10^6 tachyzoites/blot strip) were fractionated by SDS-PAGE under reducing conditions and transblotted to Immobilon membrane (Millipore) in a semi-dry blot apparatus (BioRad). Low-range molecular weight markers (BioRad) were electrophoresed in a separate well to allow for Mr estimation of native N. caninum tachyzoite protein. After blotting, the membranes were cut into vertical strips, treated with blocking agent (PBS-2% non-fat dry milk) for 30 min at RT, and then incubated for 2 hr at RT with a 1:100 dilution of serum from individual mice in each treatment group. The blot strips were then incubated for 1 hr with biotinylated goat anti-mouse IgG (H+L ch. sp., 1:1000 dilution, Sigma Chemical Co.), followed by alkaline-phosphatase-labeled avidin (1:25,000 dilution, Sigma), and developed with NBT-BCIP substrate (Pierce). The blots were washed 3 times between each incubation step with PBS-0.05% Tween 20 (Sigma).

[4] = system: NcSRS2; test: Western blot detection of anti-NcSRS2 antibodies in mouse sera (NcAg as antigen); assay type: in vivo, N. caninum
Procedure: as §3, with “regulations. […]” for “regulations.”

[5] = system: N. caninum tachyzoites (NC1 isolate); test: Vaccination and N. caninum tachyzoite challenge; N. caninum-specific Nc5 PCR on brain tissue; assay type: in vivo, BALB/c mice; settings: for Positive/Total = number of mice brain positive for N. caninum DNA/total mice in the group: 3 weeks after s.c. challenge with 10^5 tachyzoites; for level of protection against challenge infection compared to control groups: vs non-recombinant- or non-vaccinated groups
Procedure: as §3
Mouse brain tissue was extracted for DNA using standard procedures (Jenkins et al. 2004, supra). The presence of N. caninum in brain tissue was determined by N. caninum-specific Nc5 PCR using Np6/Np21 primers (Muller et al. 1996. J. Clin. Microbiol. 34: 2850-2852; Yamage et al. 1996. J. Parasitol. 82: 272-279) and an internal standard to control for false negative reactions as described (Jenkins et al. 2004a, supra; Liddell et al. 1999a, supra).

Substance: Group 1: recombinant Neospora caninum cyclophilin protein (SEQ ID NO:2), 20 μg formulated with adjuvants ImmuMax-SR and CpG
- levels of NcCyP-specific antibodies (ELISA) compared to other groups [1]: significantly higher (p<0.01)
- levels of NcSRS2-specific antibodies (ELISA) compared to other groups [2]: higher (p<0.05)
- number of mice with detectable anti-NcCyP Ab in total mice of the group ([3]; Trial I): 11/14^3
- number of mice with detectable anti-NcCyP Ab in total mice of the group ([3]; Trial II): 12/15
- percent of mice with detectable antibodies against NcCyP ([3]; listed as NcCyP): about 77%
- percent of mice with detectable antibodies against NcCyP ([3]; listed as rNcCyP): 78%
- number of mice with detectable anti-NcSRS2 Ab in total mice of the group ([4]; Trial I): 0/14
- number of mice with detectable anti-NcSRS2 Ab in total mice of the group ([4]; Trial II): 0/15
- Positive/Total = number of mice brain positive for N. caninum DNA/total mice in the group ([5]; Trial I): 1/15
- Positive/Total = number of mice brain positive for N. caninum DNA/total mice in the group ([5]; Trial II): 3/15
- average percent of mice brain-positive for N. caninum ([5]; average of both trials): 13%
- percent protection ([5]; for both trials, (mice brain negative for Nc DNA/total)x100, formulated with ImmuMax-SR/CpG): 80-93%
- Positive/Total (Mean) ([5]; mean positive/total from trials I and II): 2/15
- percent of mice brain-positive for N. caninum, range over the trials ([5]; range of trials I and II): 7-20%
- level of protection against challenge infection compared to control groups ([5]; listed as NcCyP): significantly higher protection
- level of protection against challenge infection compared to control groups ([5]; listed as rNcCyP): higher (p<0.001) levels of protection
